{"source": "patent US20230256094A1", "about": "“CANCER RADIOSENSITIZATION BY IN SITU FORMATION OF GOLD NANOPARTICLES AND/OR GOLD NANOCLUSTERS” (BOARD OF REGENTS, THE UNIVERSITY OF TEXAS SYSTEM, priority 2020, published 2023)", "key": {"[1]": {"test_system": "pancreatic cancer cells (MIAPACA2)", "assay": "Confocal fluorescence imaging of in situ GNC synthesis", "format": "cell-based, human", "conditions": "MIAPACA2; 1 mM, 24 hours; 561 nm excitation, 610 nm emission", "protocol": "(§1) FIG. 4 presents fluorescence confocal images of non-cancerous (HPDE) and cancerous (MIAPaCa2) pancreatic cells treated with either 1 mM of Au^3+ gold ions or premade albumin-GNCs at 1 mM Au^0 for 24 hours. (From left to right) Cells: untreated; treated with albumin-GNCs; treated with Au^3+ gold ions. […] The strong red fluorescence in cancer cells indicated intracellular synthesis of GNCs from gold ions. Scale bars are 25 μm.\n(§2) We compared in situ synthesis of GNCs by pancreatic cancer cells (MIAPACA2) and pancreatic noncancerous cells (HPDE) (FIG. 4). Confocal fluorescence images were obtained using a Leica TCS SP8 confocal microscope with 561 nm excitation and 610 nm emission optimized for detection of GNCs."}, "[2]": {"test_system": "pancreatic noncancerous cells (HPDE)", "assay": "Confocal fluorescence imaging of in situ GNC synthesis", "format": "cell-based", "conditions": "1 mM, 24 hours, 561 nm excitation, 610 nm emission", "protocol": "as §1, §2"}, "PANC1 cells [3]": {"test_system": "PANC1 cells", "assay": "Optimization of conditions for intracellular synthesis of fluorescent GNCs", "format": "cell-based, human", "protocol": "2.3. Optimization of conditions for intracellular synthesis of GNCs. We determined optimal conditions for intracellular synthesis of fluorescent GNCs by PANC1 cells through variations in (1) how long cells condition media before addition of Au^3+ ions (FIG. 11), (2) the concentration of FBS within the media (FIG. 10), (3) concentration of added Au^3+ ions (FIGS. 13), and (4) incubation time (FIG. 12). We used the following standard conditions: 24 hr cell conditioning time, 10% FBS, 1.00 mM Au^3+, and 24 hr Au^3+ treatment duration. […] We observed significant formation of GNCs at Au^3+ concentrations between 0.20-0.75 mM, with fluorescence reduced at concentrations greater than 1.00 mM, possibly, due to formation of larger non-fluorescent gold nanoparticles (GNPs). We observed fluorescence as early as 30 minutes after addition of gold atoms with a significant increase up to 4 hours."}, "PANC1 cells [4]": {"test_system": "PANC1 cells", "assay": "MTS viability assay", "format": "cell-based", "protocol": "2.4. Characterize cytotoxicity of gold atom treatment. An MTS viability assay was used with 0-2.0 mM Au^3+ dose range. […] MTS assay was not usable at concentrations >0.75 mM Au^3+ due to intracellular formation of larger GNPs and their absorbance interfering with the MTS results. Therefore, at higher Au^3+ we switched to AO/PI live-dead staining (FIG. 15) and JC-1 mitochondrial depolarization assays (FIG. 19). JC-1 assay indicated cell viability ˜80% for concentrations between 0.20-1.50 mM Au^3+."}, "PANC1 pancreatic cancer [5]": {"test_system": "PANC1 pancreatic cancer", "assay": "JC-1 assay of mitochondrial polarization after irradiation", "format": "cell-based, human", "conditions": "24 hr post-irradiation, 8 Gy", "protocol": "(§3) FIG. 22 reports on a mechanistic study of radiosensitization quantifying mitochondrial depolarization through JC-1 assay measured at 0, 1, and 24 hours, resulting from 24 hour, 0.20 mM Au^3+ treatments (lower three) compared against non-treated (upper three) combined with either 0 Gy or 8 Gy x-ray irradiation. Treatments are in full cell media to PANC1 pancreatic cancer.\nThe JC-1 assay measures the charge potential of the mitochondria of cells through the fluorometric ratio of the JC-1 dye (ThermoFisher Scientific, Waltham, Mass.). JC-1 is a cationic carbocyanine dye that accumulates in mitochondria. The dye exists as a monomer at low concentrations and yields green fluorescence, similar to fluorescein. […] These characteristics make JC-1 a sensitive marker for mitochondrial membrane potential. In other words, mitochondrial depolarization is indicated by a decrease in the red/green fluorescence intensity ratio. Mitochondrial depolarization is an indicator of reduced cell viability.\n(§4) Further, we characterized the mechanisms of radiosensitization through (i) quantification of double stranded DNA breaks via y-H2AX Foci (FIG. 21), (ii) mitochondrial polarization via JC-1 assay (FIG. 22), (iii) NADP total (FIG. 23) and NADP:NADPH ratio (FIG. 24) via NADP(H) assay, and (iv) peroxidation production via TBARS assay (FIG. 25)."}, "PANC1 pancreatic cancer [6]": {"test_system": "PANC1 pancreatic cancer", "assay": "NADP(H) assay after irradiation", "format": "cell-based, human", "conditions": "24 hr post-irradiation", "protocol": "as §3, with “23” for “22”, “total NADP” for “mitochondrial depolarization”, “NADP” for “JC-1”, “(right four bars)” for “(lower three)”, “(left four bars)” for “(upper three)”\nas §3, with “24” for “22”, “the ratio of NADP^+/NADPH” for “mitochondrial depolarization”, “NADP” for “JC-1”, “(right)” for “(lower three)”, “(left)” for “(upper three)”\nas §4"}, "PANC1 pancreatic cancer [7]": {"test_system": "PANC1 pancreatic cancer", "assay": "TBARS assay of peroxidation product formation", "format": "cell-based, human", "conditions": "24 hr post irradiation", "protocol": "FIG. 25 reports on a mechanistic study of radiosensitization quantifying the ratio of peroxidation product formation resulting from X-ray damage through TBARS assay, resulting from 24 hour, 0.20 mM Au^3+ treatments (right) compared against non-treated (left) combined with either 0 Gy or 8 Gy x-ray irradiation. Treatments are in full cell media to PANC1 pancreatic cancer.\nas §4"}, "PANC1 pancreatic cancer [8]": {"test_system": "PANC1 pancreatic cancer", "assay": "MTT assay of cell viability after x-ray irradiation", "format": "cell-based, human", "conditions": "24 hours after irradiation, all radiation dosages greater than 0 Gy, 0.20 mM", "protocol": "FIG. 26 presents evidence of radiosensitization, quantifying the cell viability resulting from X-ray damage through MTT assay measured 24 and 96 hours after x-ray irradiation, resulting from 24 hour, 0.20 mM Au^3+ treatments (right bar in each dosage pair) compared against non-treated (left bar in each dosage pair) combined with either 0 Gy or 8 Gy x-ray irradiation. Treatments are in full cell media to PANC1 pancreatic cancer."}, "[9]": {"test_system": "PANC1 xenografts in nu/nu mice", "assay": "Tumor volume after 10 Gy X-ray irradiation in xenografts", "format": "in vivo", "conditions": "48 hours after treatment with 1.00 mM"}, "[10]": {"test_system": "8505C thyroid cancer and Nthy-Ori-3-1 normal thyroid cells", "assay": "MTT assay of cell viability, thyroid cells", "format": "cell-based", "conditions": "24 hour treatment, all concentrations"}, "thyroid cancer": {"test_system": "thyroid cancer", "assay": "gamma H2AX foci after x-ray irradiation, thyroid cancer", "format": "cell-based", "conditions": "24 hours after x-ray irradiation, 0 or 8 Gy, 0.20 mM", "source_text": "Treatments are in full cell media."}}, "data": [{"smiles": "[Au+3].[Cl-].[Cl-].[Cl-].[Cl-].[H+]", "note": "[Au^3+, chloroauric acid]", "values": [{"measurement": "GNC fluorescence / GNC formation", "setting": "[1]", "result": "ubiquitous"}, {"measurement": "GNC fluorescence / GNC formation", "setting": "[2]", "result": "only sparsely seen"}, {"measurement": "earliest time at which fluorescence was observed after addition", "setting": "PANC1 cells [3]; 1.00 mM, 10% FBS", "result": 30, "unit": "min"}, {"measurement": "time up to which fluorescence increased significantly", "setting": "PANC1 cells [3]; 1.00 mM, 10% FBS", "result": "up to 4 hours"}, {"measurement": "Au^3+ concentrations at which fluorescence is reduced", "setting": "PANC1 cells [3]; 24 hr treatment, 10% FBS", "result": "greater than 1.00 mM"}, {"measurement": "Au^3+ concentrations with significant formation of GNCs", "setting": "PANC1 cells [3]; 24 hr treatment, 10% FBS", "result": "0.20 to 0.75", "unit": "mM"}, {"measurement": "change of GNC synthesis with duration of media conditioning or FBS concentration", "setting": "PANC1 cells [3]; media conditioning up to 72-hr, FBS 0-10% (v/v)", "result": "No significant changes"}, {"measurement": "impact on viability (MTS)", "setting": "PANC1 cells [4]; 0.0-0.20 mM", "result": "no impacts on viability"}, {"measurement": "cell viability (MTS)", "setting": "PANC1 cells [4]; 0.75 mM", "result": "~81", "unit": "%"}, {"measurement": "recovery of mitochondrial depolarization", "setting": "PANC1 pancreatic cancer [5]", "result": "no recovery in the mitochondrial depolarization"}, {"measurement": "NADP total lower than for non-treated cells", "setting": "PANC1 pancreatic cancer [6]", "result": "~43", "unit": "%"}, {"measurement": "NADP:NADPH ratio larger than for non-treated cells", "setting": "PANC1 pancreatic cancer [6]", "result": 181, "unit": "%"}, {"measurement": "increase in peroxidation product formation", "setting": "PANC1 pancreatic cancer [7]", "result": "~2", "unit": "x"}, {"measurement": "cell viability vs untreated controls (MTT)", "setting": "PANC1 pancreatic cancer [8]", "result": "significantly lower cell viability"}, {"measurement": "radiosensitization effect by tumor volume measurements", "setting": "[9]", "result": "evidence of radiosensitization effect"}, {"measurement": "viability of cancer cells compared with normal cells (MTT)", "setting": "[10]", "result": "significantly lower viability of cancer cells than normal cells"}, {"measurement": "radiosensitization via induced double stranded DNA breaks (gamma H2AX foci)", "setting": "thyroid cancer", "result": "evidence of radiosensitization via induced double stranded DNA breaks"}]}]}
